Measured values taken from US20080214808A1, “Preparation of Aseptic 3-[2-[4-((6-Fluoro-1,2-Benzisoxazol-3-Yl)-1-Piperidinyl]-6,7,8,9-Tetrahydro-9-Hydroxy-2-Methyl-4H-Pyrido[1,2-a]Pyrimidin-4-One Palmitate Ester” (priority 2005, published 2008).

Experiment: Gamma irradiation of compound (I) in different containers, amounts of (I) and breakdown products by HPLC
Format: physicochemical
From the text: During pharmaceutical development, aseptic formulations of paliperidone palmitate (I) were initially obtained by gamma irradiation.
Compound (I) was irradiated with various doses of gamma rays in different containers.

[1] = Glass container, gamma dose 5 kGY
[2] = Glass container, gamma dose 10 kGY
[3] = Glass container, gamma dose 15 kGY
[4] = Glass container, gamma dose 20 kGY
[5] = Glass container, gamma dose 25 kGY
[6] = Glass container, gamma dose 30 kGY
[7] = Glass/metal container, gamma dose 5 kGY
[8] = Glass/metal container, gamma dose 10 kGY
[9] = Glass/metal container, gamma dose 15 kGY
[10] = Glass/metal container, gamma dose 20 kGY
[11] = Glass/metal container, gamma dose 25 kGY
[12] = Glass/metal container, gamma dose 30 kGY
[13] = Plastic container, gamma dose 15 kGY
[14] = Plastic container, gamma dose 20 kGY
[15] = Plastic container, gamma dose 25 kGY
[16] = gamma irradiation, maximum found

CCCCCCCCCCCCCCCC(=O)OC1CCCn2c1nc(C)c(CCN1CCC(c3noc4cc(F)ccc34)CC1)c2=O (centres unmarked) [(I), 3-[2-[4-(6-fluoro-1,2-benzisoxazol-3-yl)-1-piperidinyl]ethyl]-6,7,8,9-tetrahydro-9-hydroxy-2-methyl-4H-pyrido[1,2-a]pyrimidin-4-one palmitate ester]
amount of (I) [1]: 98.8%
amount of breakdown product (III) [1]: 0.08%
amount of breakdown products (II) [sum of (II-a) and (II-b)] [1]: 0.02%
amount of (I) [2]: 98.7%
amount of breakdown product (III) [2]: 0.15%
amount of breakdown products (II) [sum of (II-a) and (II-b)] [2]: 0.05%
amount of (I) [3]: 98.5%
amount of breakdown product (III) [3]: 0.23%
amount of breakdown products (II) [sum of (II-a) and (II-b)] [3]: 0.11%
amount of (I) [4]: 98.3%
amount of breakdown product (III) [4]: 0.34%
amount of breakdown products (II) [sum of (II-a) and (II-b)] [4]: 0.17%
amount of (I) [5]: 98.2%
amount of breakdown product (III) [5]: 0.36%
amount of breakdown products (II) [sum of (II-a) and (II-b)] [5]: 0.18%
amount of (I) [6]: 98%
amount of breakdown product (III) [6]: 0.46%
amount of breakdown products (II) [sum of (II-a) and (II-b)] [6]: 0.24%
amount of (I) [7]: 98.8%
amount of breakdown product (III) [7]: 0.08%
amount of breakdown products (II) [sum of (II-a) and (II-b)] [7]: 0.02%
amount of (I) [8]: 98.9%
amount of breakdown product (III) [8]: 0.1%
amount of (I) [9]: 98.5%
amount of breakdown product (III) [9]: 0.23%
amount of breakdown products (II) [sum of (II-a) and (II-b)] [9]: 0.11%
amount of (I) [10]: 98.4%
amount of breakdown product (III) [10]: 0.29%
amount of breakdown products (II) [sum of (II-a) and (II-b)] [10]: 0.15%
amount of (I) [11]: 97.2%
amount of breakdown product (III) [11]: 0.35%
amount of breakdown products (II) [sum of (II-a) and (II-b)] [11]: 0.05%
amount of (I) [12]: 98.2%
amount of breakdown product (III) [12]: 0.45%
amount of breakdown products (II) [sum of (II-a) and (II-b)] [12]: 0.21%
amount of (I) [13]: 98.3%
amount of breakdown product (III) [13]: 0.23%
amount of breakdown products (II) [sum of (II-a) and (II-b)] [13]: 0.03%
amount of (I) [14]: 97.9%
amount of breakdown product (III) [14]: 0.29%
amount of breakdown products (II) [sum of (II-a) and (II-b)] [14]: 0.03%
amount of (I) [15]: 97.2%
amount of breakdown product (III) [15]: 0.35%
amount of breakdown products (II) [sum of (II-a) and (II-b)] [15]: 0.06%
breakdown product (III) formed [16]: up to 0.46%
breakdown products (II) [(II-a) and (II-b), co-eluting in HPLC] formed [16]: up to 0.24%
amount of the breakdown products (II) and (III) versus gamma dose (various doses of gamma rays, different containers): increased dose-dependently
